This note sets out measurements from patent US8278312B2, “Imidazo 1,2-a pyrimidine derivatives for the treatment of diseases such as diabetes” (Merck Patent Gesellschaft mit Beschränkter Haftung, priority 2007, dated 2012).

The IC50 is the midpoint of a concentration-inhibition curve. A lower IC50 goes with inhibition by little substance.

The target of one assay is T1, SGLT2 (Homo sapiens, UniProt P31639).
T1 construct: expressed in transfected cells
T1 sequence (P31639 1-672): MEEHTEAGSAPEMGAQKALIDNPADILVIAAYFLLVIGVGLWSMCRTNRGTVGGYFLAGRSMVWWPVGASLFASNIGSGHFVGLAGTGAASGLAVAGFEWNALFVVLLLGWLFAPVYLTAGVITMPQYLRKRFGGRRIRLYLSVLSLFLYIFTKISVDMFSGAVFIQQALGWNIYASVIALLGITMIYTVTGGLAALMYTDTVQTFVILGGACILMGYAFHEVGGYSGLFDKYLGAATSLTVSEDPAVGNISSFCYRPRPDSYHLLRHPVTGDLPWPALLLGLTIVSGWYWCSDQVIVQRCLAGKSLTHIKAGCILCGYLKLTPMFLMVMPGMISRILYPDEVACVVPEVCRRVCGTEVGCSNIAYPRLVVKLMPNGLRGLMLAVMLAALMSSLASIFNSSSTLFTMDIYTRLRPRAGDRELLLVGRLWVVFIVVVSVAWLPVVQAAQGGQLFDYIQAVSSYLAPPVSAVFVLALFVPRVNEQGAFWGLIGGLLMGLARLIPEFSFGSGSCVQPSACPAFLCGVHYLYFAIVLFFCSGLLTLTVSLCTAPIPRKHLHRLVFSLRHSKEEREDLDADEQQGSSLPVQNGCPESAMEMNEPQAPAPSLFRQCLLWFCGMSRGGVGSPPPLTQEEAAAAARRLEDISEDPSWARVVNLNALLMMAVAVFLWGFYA
Nature of the assay: 14C-AMG uptake in BHK cells transfected with SGLT2 (96-well cell-based assay). The settings on record: 2 mM AMG, 37° C., 90 min. The source says: (§1) The compounds can be tested for their SGLT inhibition properties by means of BHK cells expressing SGLT1 and SGLT2. The production of the cells and the testing can be carried out as described below.
To construct the SGLT2 expression vector (KL224), the SLC5A2 gene (homologous to NM_003041) was amplified from a cDNA library using standard PCR technology and cloned over NheI/XhoI sites into PCI-neo expression vector (Promega) containing neomycin as a selection marker. In this vector, transcription uses the enhancer/promoter of human cytomegalovirus and the SV40 polyadenylation signal.
(§2) The final vector KL224 together with an additional vector containing a dihydrofolate reductase gene as a selection marker was introduced into cells. Transfection into BHK21 cells (ATCC CCL-10), cultivated in DMEM medium (GIBCO/BRL), supplemented with 10% foetal calf serum (FCS) and 20 mM glutamine, was carried out using calcium phosphate transfections according to Graham, F. L. and van der Ebb, A. J. (1973), Virology 52: 456 with 5-20 μg of uncut plasmids for 10^7 cells. Stable transfectants were selected in medium containing 1 mg/ml of G418 (GIBCO/BRL) and 20-5000 nM methotrexate as final concentration, where only cells which expressed the neomycin gene and overexpressed the dhfr gene were able to grow. After growth for 2-3 weeks, the cells were cloned (0.5 cells/well) and the clones were investigated for SGLT expression in radioactivity uptake tests. […]
(§3) A 96-well cell-based assay was developed and adapted to HTS requirements:
(§4) BHK cells (transfected with SGLT1 or SGLT2) were seeded into 96-well microtitre plates (Cultureplates, Perkin Elmer). After at least 24 h, medium was removed, and the cell layer was washed with assay buffer (140 mM NaCl, 2 mM KCl, 1 mM CaCl2, 1 mM MgCl2, 10 mM HEPES, 5 mM Tris, adjusted to pH 7.4 using 1 M KOH). After addition of 40 μl of assay buffer, 50 μl of AMG (50 μM for SGLT1 and 2 mM for SGLT2) in the presence or absence of compounds, the cells were incubated in a total volume of 100 μl at 37° C. for 90 min. Supernatant was removed by suction and discarded. Cells were washed and lysed by addition of 50 μl of water. After 10 min at room temperature, 200 μl of Micrsoscint 40 (Perkin Elmer) were added. The radioactivity was counted in a Topcount microplate scintillation counter (Perkin Elmer). The non-specific uptake was determined in sodium-free assay buffer (266 mM sucrose, 2 mM KCl, 1 mM CaCl2, 1 mM MgCl2, 10 mM HEPES, 5 mM Tris, adjusted to pH 7.4 using 1 M KOH).

A further assay has as its target T2, SGLT1 (Homo sapiens, UniProt P13866).
T2 construct: expressed in transfected cells
T2 sequence (P13866 1-664): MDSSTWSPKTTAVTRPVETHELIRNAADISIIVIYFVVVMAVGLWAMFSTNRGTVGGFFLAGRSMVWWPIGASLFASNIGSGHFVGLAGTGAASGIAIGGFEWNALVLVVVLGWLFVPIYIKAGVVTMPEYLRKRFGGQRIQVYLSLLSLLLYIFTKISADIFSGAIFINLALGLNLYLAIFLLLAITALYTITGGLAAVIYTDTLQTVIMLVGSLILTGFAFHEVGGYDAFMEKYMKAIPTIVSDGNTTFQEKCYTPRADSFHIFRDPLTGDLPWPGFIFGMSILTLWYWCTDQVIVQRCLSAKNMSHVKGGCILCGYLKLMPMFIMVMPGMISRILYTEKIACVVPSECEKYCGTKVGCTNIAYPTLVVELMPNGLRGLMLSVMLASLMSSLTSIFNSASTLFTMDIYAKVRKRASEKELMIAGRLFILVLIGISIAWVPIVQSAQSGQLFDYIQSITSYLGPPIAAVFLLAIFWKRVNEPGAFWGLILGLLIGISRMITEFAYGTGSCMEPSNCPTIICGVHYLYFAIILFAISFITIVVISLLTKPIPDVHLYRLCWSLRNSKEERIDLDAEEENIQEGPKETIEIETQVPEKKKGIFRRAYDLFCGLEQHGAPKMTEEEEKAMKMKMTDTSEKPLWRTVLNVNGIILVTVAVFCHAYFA
Nature of the assay: 14C-AMG uptake in BHK cells transfected with SGLT1 (96-well cell-based assay). Conditions: 50 μM AMG, 37° C., 90 min.
Excerpt: as §1
To construct the SGLT1 expression vector (KL225), the SLC5A1 gene (homologous to NM_000343) was amplified from a cDNA library using standard PCR technology and cloned over NheI/XhoI sites into the pcDNA3.1 expression vector (Invitrogen) containing neomycin as a selection marker. In this vector, transcription uses the enhancer/promoter of human cytomegalovirus.
as §2, with “KL225” for “KL224”
as §3, §4

Take `Cc1cccc(C)c1Nc1c(-c2ccccc2OCC(N)=O)nc2ncccn12` [Compound A1, 2-{2-[3-(2,6-Dimethylphenylamino)-imidazo[1,2-a]pyrimidin-2-yl]phenoxy}-acetamide]: the IC50 was 1000 to 10000 nM on SGLT2 and > 10000 nM on SGLT1.
With `Cc1cc(C)n2c(Nc3c(C)cccc3C)c(-c3ccccc3OCC(N)=O)nc2n1` [Compound A2], the half-maximal inhibitory concentration (IC50) against SGLT2 and against SGLT1 was > 10000 nM in each case.
With `CNc1nnc(-c2cc(OC)cc(OC)c2-c2nc3ncccn3c2Nc2c(Cl)cccc2Cl)o1` [Compound A3, (2,6-dichlorophenyl)-{2-[2,4-dimethoxy-6-(5-methylamino-1,3,4-oxadiazol-2-yl)phenyl]imidazo[1,2-a]pyrimidin-3-yl}amine], the 50% inhibitory concentration (IC50) against SGLT2 and at SGLT1 was 10 to 1000 nM in each case.
With `CNc1nnc(-c2cc(OC)cc(OC)c2-c2nc3ncccn3c2Nc2c(Cl)cc(F)cc2Cl)o1` [Compound A4, (2,6-Dichloro-4-fluorophenyl)-{2-[2,4-dimethoxy-6-(5-methylamino-1,3,4-oxadiazol-2-yl)phenyl]imidazo[1,2-a]-pyrimidin-3-yl}amine], the IC50 against SGLT2 and on SGLT1 was 10 to 1000 nM throughout.
In the case of `CCNc1nnc(-c2cc(OC)cc(OC)c2-c2nc3ncccn3c2Nc2c(Cl)cccc2Cl)o1` [Compound A5, (2,6-Dichlorophenyl)-{2-[2-(5-ethylamino-1,3,4-oxadiazol-2-yl)-4,6-dimethoxy-phenyl]imidazo[1,2-a]pyrimidin-3-yl}-amine], the IC50 at SGLT2 is 10 to 1000 nM; at SGLT1 it was 1000 to 10000 nM.
Taken in the same sequence, the figures for `COc1cc(OC)c(-c2nc3ncccn3c2Nc2c(Cl)cccc2Cl)c(-c2n[nH]c(=O)o2)c1` [Compound A6, 5-{2-[3-(2,6-dichlorophenylamino)imidazo[1,2-a]-pyrimidin-2-yl]-3,5-dimethoxyphenyl}-3H-1,3,4-oxadiazol-2-one] were 1000 to 10000 nM and > 10000 nM.
Take `CCc1cccc(OCC(N)=O)c1-c1nc2ncccn2c1Nc1c(Cl)cccc1Cl` [Compound A7]: the IC50 is 10 to 1000 nM against SGLT2 and 1000 to 10000 nM against SGLT1.
On the same counts, the results for `CCc1cccc(OCC(N)=O)c1-c1nc2ncccn2c1Nc1c(C)cccc1C` [Compound A8, 2-{2-[3-(2,6-dimethylphenylamino)imidazo[1,2-a]-pyrimidin-2-yl]-3-ethylphenoxy}acetamide] are 1000 to 10000 nM and 1000 to 10000 nM.
On the same counts, the results for `CCc1cc(OC)cc(OCC(N)=O)c1-c1nc2ncccn2c1Nc1c(C)cccc1C` [Compound A9] are 10 to 1000 nM and > 10000 nM.
Taken in the same sequence, the figures for `COc1cc(C)c(-c2nc3ncccn3c2Nc2c(C)cccc2C)c(OCC(N)=O)c1` [Compound A10, 2-{2-[3-(2,6-Dimethylphenylamino)-imidazo[1,2-a]pyrimidin-2-yl]-5-methoxy-3-methylphenoxy}acetamide] were 10 to 1000 nM and > 10000 nM.
As to `CNc1nnc(-c2cc(OC)cc(OC)c2-c2nc3ncccn3c2Nc2c(C)cccc2C)o1` [Compound A11, {2-[2,4-Dimethoxy-6-(5-methylamino-1,3,4-oxadiazol-2-yl)phenyl]imidazo-[1,2-a]pyrimidin-3-yl}-(2,6-dimethyl-phenyl)amine], the results for the concentration for half-maximal inhibition (IC50) against SGLT2 and against SGLT1 were 10 to 1000 nM and 1000 to 10000 nM, respectively.
On the same counts, the results for `CCc1cc(OC)cc(OCC(N)=O)c1-c1nc2ncccn2c1Nc1c(Cl)cccc1Cl` [Compound A12, 2-{2-[3-(2,6-Dichlorophenylamino)-imidazo[1,2-a]pyrimidin-2-yl]-3-ethyl-5-methoxyphenoxy}acetamide] are 10 to 1000 nM and > 10000 nM.
On the same counts, the results for `CNc1nnc(-c2ccccc2-c2nc3ncccn3c2Nc2c(Cl)cc(F)cc2Cl)o1` [Compound A13, (2,6-Dichloro-4-fluorophenyl)-{2-[2-(5-methylamino-1,3,4-oxadiazol-2-yl)-phenyl]imidazo[1,2-a]pyrimidin-3-yl}-amine] are 10 to 1000 nM and 1000 to 10000 nM.
On the same counts, the results for `CCNc1nnc(-c2ccccc2-c2nc3ncccn3c2Nc2c(Cl)cccc2Cl)o1` [Compound A15, (2,6-Dichlorophenyl)-{2-[2-(5-ethylamino-1,3,4-oxadiazol-2-yl)phenyl]imidazo-[1,2-a]pyrimidin-3-yl}amine] are 10 to 1000 nM and 1000 to 10000 nM.
Take `CNc1nnc(-c2cc(Cl)cc(Cl)c2-c2nc3ncccn3c2Nc2c(C)cccc2C)o1` [Compound A16, {2-[2,4-Dichloro-6-(5-methylamino-1,3,4-oxadiazol-2-yl)phenyl]imidazo[1,2-a]-pyrimidin-3-yl}-(2,6-dimethylphenyl)amine]: the IC50 lay within 10 to 1000 nM against SGLT2 and 1000 to 10000 nM against SGLT1.
`COc1cc(C(N)=O)c(-c2nc3ncccn3c2Nc2c(Cl)cccc2Cl)c(OC)c1OC` [Compound A17, 2-[3-(2,6-dichlorophenylamino)imidazo[1,2-a]pyrimidin-2-yl]-3,5,4-trimethoxybenzamide]: the 50% inhibitory concentration (IC50) at SGLT2 was 1000 to 10000 nM; against SGLT1, > 10000 nM.
`COc1cc(OC)c(-c2nc3ncccn3c2Nc2c(Cl)cccc2Cl)c(C(=O)NN)c1` [Compound A18, 2-[3-(2,6-dichlorophenylamino)imidazo[1,2-a]pyrimidin-2-yl]-3,5-dimethoxybenzohydrazide]: the IC50 is 1000 to 10000 nM against SGLT2 and > 10000 nM on SGLT1.
